Results on 22 molecules are retold here after the PolyMetriX glass transition set.

SMILES strings stand for the structures.

`*/C=C/c1cc(OCC(CC)CCCC)c(/C=C/c2ccc3c4ccc(*)cc4n(CC(CC)CCCC)c3c2)cc1OCC(CC)CCCC` (repeat unit): the glass transition temperature was 61.00 °C.

`*/C=C/c1cc(OCCCCCCCCCCCCCCCC)c(/C=C/c2ccc(*)cc2)cc1OCCCCCCCCCCCCCCCC` (repeat unit): the glass transition temperature turned out to be 33.00 °C.

`*/C=C/c1ccc(*)c(-c2c(OCC(CC)CCCC)ccc3cc(-c4ccccc4)ccc23)c1` (repeat unit) had a glass transition temperature of 141.00 °C.

`*/C=C/c1ccc(*)c(-c2c(OCC(CC)CCCC)ccc3ccccc23)c1` (repeat unit) came in with a glass transition temperature of 118.00 °C.

`*/C=C/c1ccc(*)c(-c2cc(OCCC(C)C)c(OCCC(C)C)cc2-c2ccccc2)c1` (repeat unit) returned a glass transition temperature of 164.00 °C.

The molecule `*/C=C/c1ccc(*)c(OCc2cc(OCCC(C)CCCC(C)C)cc(OCC(CC)CCCC)c2)c1` (repeat unit) had a glass transition temperature of 227.00 °C.

The molecule `*/C=C/c1ccc(/C=C/c2ccc3c(c2)C(CCCCCCOc2ccc4ccc(=O)oc4c2)(CCCCCCOc2ccc4ccc(=O)oc4c2)c2cc(*)ccc2-3)cc1` (repeat unit) gave a glass transition temperature of 104.00 °C.

For `*/C=C/c1ccc(/C=C/c2ccc3c(c2)Sc2cc(*)ccc2N3c2ccc(OCCCCCCCCCCCC)cc2)cc1` (repeat unit), the glass transition temperature was 167.00 °C.

In turn, `*/C=C/c1ccc2c(c1)C(CCCCCCOc1ccc3ccc(=O)oc3c1)(CCCCCCOc1ccc3ccc(=O)oc3c1)c1cc(/C=C/c3ccc4c(c3)C(CCCCCC)(CCCCCC)c3cc(*)ccc3-4)ccc1-2` (repeat unit) came in with a glass transition temperature of 115.00 °C.

The molecule `*/C=C/c1cccc(/C=C/[Si](C)(C)c2ccc([Si](*)(C)C)cc2)c1` (repeat unit) yielded a glass transition temperature of 38.10 °C.

As to `*/C=C/c1nc(/C=C/c2ccc3c(c2)c2cc(*)ccc2n3CCCCCC)c(C#N)c(/C=C/c2ccc(N(c3ccccc3)c3ccccc3)cc2)c1C#N` (repeat unit), the glass transition temperature is 134.00 °C.

`*/C=C/c1sc(/C=C/c2ccc3c4ccc(*)cc4n(CC(CC)CCCC)c3c2)c(CC(CC)CCCC)c1CC(CC)CCCC` (repeat unit) registered a glass transition temperature of 60.00 °C.

`*CCCCCCNC(=O)CC(=O)N*` (repeat unit): the glass transition temperature was 50.00 °C.

Turning to `*CCCCCCNC(=O)CCc1ccc(C(C)CC(=O)N*)cc1` (repeat unit), the glass transition temperature is 77.00 °C.

Molecule `*CCCCOCCCCOCCCCOC(=O)c1ccc(/N=C/c2cc(OCCC(C)CCCC(C)C)c(/C=N/c3ccc(C(=O)O*)cc3)cc2OCCC(C)CCCC(C)C)cc1` (repeat unit) gave a glass transition temperature of -4.80 °C.

Turning to `*CCOCCOc1ccc(/C=C(\C)c2ccc(O*)cc2)cc1` (repeat unit), the glass transition temperature stood at 39.00 °C.

Molecule `*Nc1ccc(NC(=O)Cc2cc(C)c(CC(*)=O)cc2C)cc1` (repeat unit) had a glass transition temperature of 175.00 °C.

`*OC(C)(CC(*)=O)C(F)(F)F` (repeat unit) gave a glass transition temperature of 27.00 °C.

`*Oc1ccc(S(=O)(=O)c2ccc(Oc3ccc(/C=C4\CCCC/C(=C\c5ccc(*)cc5)C4=O)cc3)cc2)cc1` (repeat unit) displayed a glass transition temperature of 186.00 °C.

Molecule `*Oc1ccc(S(=O)(=O)c2ccc(Oc3ccc(C4(c5ccc(Oc6ccc(S(=O)(=O)c7ccc(Oc8ccc(/C=C9\CC/C(=C\c%10ccc(*)cc%10)C9=O)cc8)cc7)cc6)cc5)CCCC4)cc3)cc2)cc1` (repeat unit) came in with a glass transition temperature of 240.00 °C.

Take `*c1cc(C)c(/N=C/c2ccc(OCc3ccc(COc4ccc(/C=N/c5cc(C)c(N6C(=O)c7ccc8c9ccc%10c%11c(ccc(c%12ccc(c7c8%12)C6=O)c%119)C(=O)N(*)C%10=O)cc5C)cc4OC)cc3)c(OC)c2)cc1C` (repeat unit): the glass transition temperature is 145.00 °C.

`*c1ccc(/C=C/c2cc(OCC(CC)CCCC)c(/C=C/c3ccc(N(*)c4ccccc4)cc3)cc2OC)cc1` (repeat unit) gave a glass transition temperature of 147.00 °C.
